In patent publication US20080166805A1, “Culturing human cells and tissues in an N-glycolylneuraminic acid-free environment” (The Regents of the University of California, priority 2005, published 2008):

Experiments:
[1] = tested on: lysosomal sialic acid transporter mutant human fibroblasts (GM08496); assay: Neu5Gc/ManNGc feeding, lysosomal sialic acid transporter mutant fibroblasts GM08496; assay type: cell-based; details: GM08496 (Salla disease) fibroblasts fed 3 mM for 3 days
From the text: (§1) Cell Lines—Caco-2 cells (human epithelial cells isolated from a primary colon carcinoma), normal human skin fibroblasts (CCD-919-SK) and chinese hamster ovary (CHO-K1) cells were purchased from ATCC (Manassas, Va.) Mutant human skin fibroblasts (GM05520, GM08496 and GM01718) were obtained from the Coriell Institute for Medical Research (Camden, N.J.) Chimpanzee Fred and human […] EBV-transformed lymphoblasts were a gift from Dr. Peter Parham, Stanford University, CA. […]
(§2) Fractionation of the Labeled Cells—Washed cell pellets were sonicated into 500 μL of 20 mM sodium phosphate buffer or 20 mM Tris-HCl, pH 7.5, using 4×15 second pulses of a sonicator cell disrupter, model Some Dismembrator (Fisher Scientific, Hampton, N.J.) at a probe setting of 3. […] The pellet contained <5% of the incorporated sialic acid as determined using a radioactive tracer (data not shown.) The supernatant was therefore considered as the “total homogenate” fraction. A portion (20%) of the “total homogenate” fraction was taken for protein quantification and Sia analysis by DMB derivatization and HPLC analysis (as discussed below.) The remainder was centrifuged at 100,000×g for 1 h. […] All the Sias in these fractions were released with mild acid hydrolysis if necessary and then analyzed by HPLC after DMB derivatization. […]

[2] = tested on: normal human skin fibroblasts (WT); assay: Neu5Gc/ManNGc feeding experiment, normal human skin fibroblasts; assay type: cell-based
Experimental: (§3) Cell Culture—Caco-2 cells were propagated in alpha-MEM containing GLUTAMAX™ (Invitrogen, San Diego, Calif.) and a mixture of ribonucleosides and deoxyribonucleosides (Gibco/Invitrogen, San Diego, Calif.) supplemented with 20% FCS. All the fibroblast cell lines and CHO-K1 cells were cultured in the same media supplemented respectively with 15% non-heat inactivated FCS or 10% heat inactivated FCS. Chimpanzee Fred and human […] EBV-transformed lymphoblasts were cultured in RPMI-1640 (Gibco/Invitrogen, San Diego, Calif.) supplemented with 10% heat inactivated FCS or 15% human serum. All of the cultures were maintained at 37° C., 5% CO2 atmosphere. In order to deplete any remaining Neu5Gc from FCS, the cells were split and cultured prior to Neu5Gc feeding experiments for at least 4 days in alpha-MEM supplemented with an adequate percentage of heat-inactivated premium human serum instead of FCS. The cells were then maintained under the same conditions during the whole feeding experiment. The human serum was heat inactivated at 56° C. for 30 min. before use.
(§4) Neu5Gc and ManNGc Feeding Experiment—Neu5Ac, Neu5Gc or ManNGc were dried, dissolved in the appropriate media supplemented with heat-inactivated human serum, sterilized using a Spin-X® (Corning Inc., Corning, N.Y.) and then added to the cells. The pH of the media containing Sia was adjusted to neutrality using sterilized 1M NaOH before starting the feeding experiment. Cells were cultured in the presence of up to 3 mM free Sia or ManNGc for 1 or 3 days at 37° C. At the end of the feeding, cells were washed with cold PBS, harvested either by scraping or with 2 mM EDTA for fibroblasts, and washed again with cold PBS prior to fractionation.
Fractionation of the Labeled Cells—Washed cell pellets were sonicated into 500 μL of 20 mM sodium phosphate buffer or 20 mM Tris-HCl, pH 7.5, using 4×15 second pulses of a sonicator cell disrupter, model Some Dismembrator (Fisher Scientific, Hampton, N.J.) at a probe setting of 3. The sonicate was centrifuged at 75×g for 15 min., and the pellet obtained consisted primarily of nuclei and unbroken cells. The pellet contained <5% of the incorporated sialic acid as determined using a radioactive tracer (data not shown.) The supernatant was therefore considered as the “total homogenate” fraction. A portion (20%) of the “total homogenate” fraction was taken for protein quantification and Sia analysis by DMB derivatization and HPLC analysis (as discussed below.) The remainder was centrifuged at 100,000×g for 1 h. The resulting pellet, called the “membrane” fraction, was then resuspended by sonication (15 sec.) in 200 μl of sodium acetate buffer, pH 5.5. The 100,000×g supernatant, called the “soluble” fraction was adjusted to 90% ethanol using absolute ice-cold ethanol, and placed overnight at −20° C. The flocculant precipitate, which represents the “soluble protein” fraction, was washed 3 times with 90% ice-cold ethanol and then resuspended in 200 μl of water. […] All the Sias in these fractions were released with mild acid hydrolysis if necessary and then analyzed by HPLC after DMB derivatization. Protein quantification was performed on the total homogenate, membrane and soluble protein fractions by using the BCA protein assay kit from Pierce (Rockford, Ill.) In some experiments, the resulting data obtained for the Sia bound to the membrane fraction and to the soluble proteins were pooled and presented here as a High Molecular Weight (HMW) fraction. […]

Caco-2 cells = assay: Endocytosis inhibition experiments (Neu5Gc uptake in Caco-2 cells); assay type: cell-based, human; details: 3 mM Neu5Gc, no inhibitor
Experimental: The sonicate was centrifuged at 75×g for 15 min., and the pellet obtained consisted primarily of nuclei and unbroken cells. […] A portion (20%) of the “total homogenate” fraction was taken for protein quantification and Sia analysis by DMB derivatization and HPLC analysis (as discussed below.) The remainder was centrifuged at 100,000×g for 1 h. The resulting pellet, called the “membrane” fraction, was then resuspended by sonication (15 sec.) in 200 μl of sodium acetate buffer, pH 5.5. The 100,000×g supernatant, called the “soluble” fraction was adjusted to 90% ethanol using absolute ice-cold ethanol, and placed overnight at −20° C. The flocculant precipitate, which represents the “soluble protein” fraction, was washed 3 times with 90% ice-cold ethanol and then resuspended in 200 μl of water. The supernatant fluid representing the cytosolic low molecular weight (LMW) fraction was dried and brought up in 100 μL with water prior to Sia analysis. All the Sias in these fractions were released with mild acid hydrolysis if necessary and then analyzed by HPLC after DMB derivatization. Protein quantification was performed on the total homogenate, membrane and soluble protein fractions by using the BCA protein assay kit from Pierce (Rockford, Ill.) In some experiments, the resulting data obtained for the Sia bound to the membrane fraction and to the soluble proteins were pooled and presented here as a High Molecular Weight (HMW) fraction. Sialic Acid Release, DMB Derivatization and HPLC Analysis—The bound Sias from the total homogenate, membrane and soluble protein fractions were released using 2M acetic acid hydrolysis, 3 h. at 80° C. The released Sias, or free Sias, contained in the soluble LMW fraction were passed through a Microcon® YM-10 filter (Millipore, Bedford, Mass.) prior to DMB derivatization, which was done according to Hara et al., 1989. […] The eluant was monitored by fluorescence. Quantification of Sias—For all HPLC chromatograms, the quantification of Sias was done by comparison with known quantities of DMB derivatized Neu5Gc and Neu5Ac used as standards and then reported in terms of pmoles of Sia. For total homogenate, membrane and cytosolic protein fractions, this number was expressed per mg of protein. Due to minor sample-to-sample variations in amounts and recoveries, the data in the Figures is presented as percent of Neu5Gc over total Sias, rather than as absolute amounts. Endocytosis Inhibition Experiments—Caco-2 or normal fibroblast cells were split and cultured in alpha-MEM media supplemented respectively with 20% or 15% human serum for 4 days before starting the endocytosis drug inhibition experiments in order to deplete any Neu5Gc derived from FCS. Cells were then pre-treated for 2 h. with the specific inhibitors under the same culture conditions. Fresh media containing the same amount of inhibitor and 3 mM of Neu5Gc was then added to the cells, which were incubated for 16 h or 3 days and finally harvested and fractionated as described above.

[3] = tested on: human LB EBV-transformed lymphoblasts; assay: Neu5Gc/Neu5Ac feeding experiment, human EBV-transformed lymphoblasts; assay type: cell-based; details: human lymphoblasts fed 3 mM for 3 days
Experimental: as §3
as §4, with “At the end of the feeding, cells were washed with cold PBS, harvested either by scraping or with 2 mM EDTA for fibroblasts, and washed again with cold PBS prior to fractionation.” left out
Fractionation of the Labeled Cells—Washed cell pellets were sonicated into 500 μL of 20 mM sodium phosphate buffer or 20 mM Tris-HCl, pH 7.5, using 4×15 second pulses of a sonicator cell disrupter, model Some Dismembrator (Fisher Scientific, Hampton, N.J.) at a probe setting of 3. […] The pellet contained <5% of the incorporated sialic acid as determined using a radioactive tracer (data not shown.) The supernatant was therefore considered as the “total homogenate” fraction. A portion (20%) of the “total homogenate” fraction was taken for protein quantification and Sia analysis by DMB derivatization and HPLC analysis (as discussed below.) The remainder was centrifuged at 100,000×g for 1 h. […] All the Sias in these fractions were released with mild acid hydrolysis if necessary and then analyzed by HPLC after DMB derivatization. Protein quantification was performed on the total homogenate, membrane and soluble protein fractions by using the BCA protein assay kit from Pierce (Rockford, Ill.) In some experiments, the resulting data obtained for the Sia bound to the membrane fraction and to the soluble proteins were pooled and presented here as a High Molecular Weight (HMW) fraction. […]

[4] = tested on: lysosomal sialic acid transporter mutant human fibroblasts (GM05520); assay: Neu5Gc/ManNGc feeding, lysosomal sialic acid transporter mutant fibroblasts GM05520; assay type: cell-based; details: GM05520 (ISSD) fibroblasts fed 3 mM for 3 days
From the text: as §1, §2

[5] = normal fibroblasts fed 3 mM for 3 days

**Q.** For `O=C(CO)N[C@H]1[C@H]([C@H](O)[C@H](O)CO)OC(O)(C(=O)O)C[C@@H]1O` (stereo partly shown) [Neu5Gc, N-glycolylneuraminic acid], which “percent of Neu5Gc in membrane-bound glycoconjugates” value [1] is on record?
**A.** 16%

**Q.** And the “Neu5Gc as percent of total Sia, HMW fraction” value [2, 5]?
**A.** 39%

**Q.** And the “Neu5Gc as percent of total Sia, TH fraction” value [2, 5]?
**A.** 28%

**Q.** And the “Neu5Gc as percent of total Sia, cytosolic LMW fraction” value [2, 5]?
**A.** 41%

**Q.** And the “percent of Neu5Gc incorporation into membrane-bound glycoconjugates” value ([2]; normal wild-type (WT) fibroblasts fed 3 mM for 3 days)?
**A.** 37%

**Q.** What about the “Neu5Gc incorporation into membrane-bound glycoconjugates without inhibitor (percent of total Sia)” value (Caco-2 cells) of the same compound?
**A.** 45%

**Q.** And the “Neu5Gc as percent of total Sia, HMW fraction” value [3]?
**A.** 51%

**Q.** What about the “Neu5Gc as percent of total Sia, LMW cytosolic fraction” value [3] of the same compound?
**A.** 80%

**Q.** What about the “Neu5Gc as percent of total Sia, TH fraction” value [3] of the same compound?
**A.** 67%

**Q.** And the “percent of Neu5Gc in membrane-bound glycoconjugates” value [4]?
**A.** 5%
